Earlier results, collected in patent US20020111657A1, “Method of controlling body temperature while reducing shivering” (priority 2001, published 2002).

System: shivering threshold
Settings: patients at normal temperature warmed until sweating then cooled until shivering; Talke, et al., Anesthesiology 87(4):835-841, 1997

Row | Structure (SMILES) | effect on shivering threshold
1 | Clc1cccc(Cl)c1N=C1NCCN1 [clonidine] | able to lower the shivering threshold
2 | Cc1cccc([C@H](C)c2cnc[nH]2)c1C [dexmedetomidine] | able to lower the shivering threshold
